#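 Grown in 96-well plates, cells were treated for 48 hours with each compound at five concentrations. Insufficient inhibition: endpoint recorded as highest concentration tested. The concentration for 50% growth inhibition is given as GI50. TGI marks complete inhibition of growth.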
# Columns and labels:
# Experiment in all cases: NCI tumour cell line growth inhibition, 48 h
# 786-0 renal = test system: 786-0 renal
# A498 renal = test system: A498 renal
# A549 NSCLC = test system: A549 NSCLC
# ACHN renal = test system: ACHN renal
# BT-549 breast = test system: BT-549 breast
# CAKI-1 renal = test system: CAKI-1 renal
# COLO 205 colon = test system: COLO 205 colon
# DU-145 prostate = test system: DU-145 prostate
# EKVX NSCLC = test system: EKVX NSCLC
# HCC-2998 colon = test system: HCC-2998 colon
# HCT-116 colon = test system: HCT-116 colon
# HCT-15 colon = test system: HCT-15 colon
# HL-60(TB) leukemia = test system: HL-60(TB) leukemia
# HOP-62 NSCLC = test system: HOP-62 NSCLC
# HOP-92 NSCLC = test system: HOP-92 NSCLC
# HS 578T breast = test system: HS 578T breast
# HT29 colon = test system: HT29 colon
# IGROV1 ovarian = test system: IGROV1 ovarian
# K-562 leukemia = test system: K-562 leukemia
# KM12 colon = test system: KM12 colon
# LOX IMVI melanoma = test system: LOX IMVI melanoma
# M14 melanoma = test system: M14 melanoma
# MALME-3M melanoma = test system: MALME-3M melanoma
# MCF7 breast = test system: MCF7 breast
# MDA-MB-231 breast = test system: MDA-MB-231 breast
# MDA-MB-435 = test system: MDA-MB-435
# MOLT-4 leukemia = test system: MOLT-4 leukemia
# NCI-H226 lung = test system: NCI-H226 lung
# NCI-H460 lung = test system: NCI-H460 lung
# NCI-H522 lung = test system: NCI-H522 lung
# NCI/ADR-RES ovarian = test system: NCI/ADR-RES ovarian
# OVCAR-3 ovarian = test system: OVCAR-3 ovarian
# OVCAR-4 ovarian = test system: OVCAR-4 ovarian
# OVCAR-5 ovarian = test system: OVCAR-5 ovarian
# OVCAR-8 ovarian = test system: OVCAR-8 ovarian
# PC-3 prostate = test system: PC-3 prostate
# RPMI-8226 leukemia = test system: RPMI-8226 leukemia
# RXF 393 renal = test system: RXF 393 renal
# SF-268 CNS = test system: SF-268 CNS
# SF-295 CNS = test system: SF-295 CNS
# SF-539 CNS = test system: SF-539 CNS
# SK-MEL-2 melanoma = test system: SK-MEL-2 melanoma
# SK-MEL-28 melanoma = test system: SK-MEL-28 melanoma
# SK-MEL-5 melanoma = test system: SK-MEL-5 melanoma
# SK-OV-3 ovarian = test system: SK-OV-3 ovarian
# SN12C renal = test system: SN12C renal
# SNB-19 CNS = test system: SNB-19 CNS
# SNB-75 CNS = test system: SNB-75 CNS
# SR leukemia = test system: SR leukemia
# SW-620 colon = test system: SW-620 colon
# T-47D breast = test system: T-47D breast
# TK-10 renal = test system: TK-10 renal
# U251 CNS = test system: U251 CNS
# UACC-257 melanoma = test system: UACC-257 melanoma
# UACC-62 melanoma = test system: UACC-62 melanoma
# UO-31 renal = test system: UO-31 renal
smiles,measurement,setting,value
N/C(=N\c1nc2c(Cl)cc(Cl)cc2s1)C(Cl)(Cl)Cl,GI50,786-0 renal,> 100 µM
same,TGI,786-0 renal,> 100 µM
same,GI50,A498 renal,15.3 µM
same,TGI,A498 renal,29.4 µM
same,GI50,A549 NSCLC,5.65 µM
same,TGI,A549 NSCLC,19.4 µM
same,GI50,ACHN renal,3.59 µM
same,TGI,ACHN renal,22.2 µM
same,GI50,BT-549 breast,85.5 µM
same,TGI,BT-549 breast,> 100 µM
same,GI50,CAKI-1 renal,9.28 µM
same,TGI,CAKI-1 renal,> 100 µM
same,GI50,COLO 205 colon,3.46 µM
same,TGI,COLO 205 colon,16.2 µM
same,GI50,DU-145 prostate,3.11 µM
same,TGI,DU-145 prostate,15.8 µM
same,GI50,EKVX NSCLC,6.01 µM
same,TGI,EKVX NSCLC,26.6 µM
same,GI50,HCC-2998 colon,6.11 µM
same,TGI,HCC-2998 colon,23.6 µM
same,GI50,HCT-116 colon,28.1 µM
same,TGI,HCT-116 colon,> 100 µM
same,GI50,HCT-15 colon,53.2 µM
same,TGI,HCT-15 colon,> 100 µM
same,GI50,HL-60(TB) leukemia,4.91 µM
same,TGI,HL-60(TB) leukemia,> 100 µM
same,GI50,HOP-62 NSCLC,5.62 µM
same,TGI,HOP-62 NSCLC,24.6 µM
same,GI50,HOP-92 NSCLC,2.89 µM
same,TGI,HOP-92 NSCLC,25.8 µM
same,GI50,HS 578T breast,17.9 µM
same,TGI,HS 578T breast,> 100 µM
same,GI50,HT29 colon,5.21 µM
same,TGI,HT29 colon,29.7 µM
same,GI50,IGROV1 ovarian,55.8 µM
same,TGI,IGROV1 ovarian,> 100 µM
same,GI50,K-562 leukemia,55.3 µM
same,TGI,K-562 leukemia,> 100 µM
same,GI50,KM12 colon,5.8 µM
same,TGI,KM12 colon,71.8 µM
same,GI50,LOX IMVI melanoma,3.3 µM
same,TGI,LOX IMVI melanoma,26.3 µM
same,GI50,M14 melanoma,> 100 µM
same,TGI,M14 melanoma,> 100 µM
same,GI50,MALME-3M melanoma,> 100 µM
same,TGI,MALME-3M melanoma,> 100 µM
same,GI50,MCF7 breast,3.02 µM
same,TGI,MCF7 breast,> 100 µM
same,GI50,MDA-MB-231 breast,38.3 µM
same,TGI,MDA-MB-231 breast,> 100 µM
same,GI50,MDA-MB-435,61.3 µM
same,TGI,MDA-MB-435,> 100 µM
same,GI50,MOLT-4 leukemia,34.6 µM
same,TGI,MOLT-4 leukemia,> 100 µM
same,GI50,NCI-H226 lung,> 100 µM
same,TGI,NCI-H226 lung,> 100 µM
same,GI50,NCI-H460 lung,3.63 µM
same,TGI,NCI-H460 lung,18.2 µM
same,GI50,NCI-H522 lung,> 100 µM
same,TGI,NCI-H522 lung,> 100 µM
same,GI50,NCI/ADR-RES ovarian,88.6 µM
same,TGI,NCI/ADR-RES ovarian,> 100 µM
same,GI50,OVCAR-3 ovarian,5.57 µM
same,TGI,OVCAR-3 ovarian,35.4 µM
same,GI50,OVCAR-4 ovarian,41 µM
same,TGI,OVCAR-4 ovarian,> 100 µM
same,GI50,OVCAR-5 ovarian,45.2 µM
same,TGI,OVCAR-5 ovarian,> 100 µM
same,GI50,OVCAR-8 ovarian,> 100 µM
same,TGI,OVCAR-8 ovarian,> 100 µM
same,GI50,PC-3 prostate,12.9 µM
same,TGI,PC-3 prostate,75.8 µM
same,GI50,RPMI-8226 leukemia,17 µM
same,TGI,RPMI-8226 leukemia,> 100 µM
same,GI50,RXF 393 renal,12.5 µM
same,TGI,RXF 393 renal,> 100 µM
same,GI50,SF-268 CNS,51.5 µM
same,TGI,SF-268 CNS,> 100 µM
same,GI50,SF-295 CNS,11.5 µM
same,TGI,SF-295 CNS,> 100 µM
same,GI50,SF-539 CNS,17.2 µM
same,TGI,SF-539 CNS,> 100 µM
same,GI50,SK-MEL-2 melanoma,> 100 µM
same,TGI,SK-MEL-2 melanoma,> 100 µM
same,GI50,SK-MEL-28 melanoma,29.2 µM
same,TGI,SK-MEL-28 melanoma,> 100 µM
same,GI50,SK-MEL-5 melanoma,> 100 µM
same,TGI,SK-MEL-5 melanoma,> 100 µM
same,GI50,SK-OV-3 ovarian,35.4 µM
same,TGI,SK-OV-3 ovarian,> 100 µM
same,GI50,SN12C renal,> 100 µM
same,TGI,SN12C renal,> 100 µM
same,GI50,SNB-19 CNS,19.4 µM
same,TGI,SNB-19 CNS,> 100 µM
same,GI50,SNB-75 CNS,> 100 µM
same,TGI,SNB-75 CNS,> 100 µM
same,GI50,SR leukemia,77.4 µM
same,TGI,SR leukemia,> 100 µM
same,GI50,SW-620 colon,48 µM
same,TGI,SW-620 colon,> 100 µM
same,GI50,T-47D breast,5.4 µM
same,TGI,T-47D breast,> 100 µM
same,GI50,TK-10 renal,31.7 µM
same,TGI,TK-10 renal,> 100 µM
same,GI50,U251 CNS,6.63 µM
same,TGI,U251 CNS,96.6 µM
same,GI50,UACC-257 melanoma,22.4 µM
same,TGI,UACC-257 melanoma,> 100 µM
same,GI50,UACC-62 melanoma,26.7 µM
same,TGI,UACC-62 melanoma,> 100 µM
same,GI50,UO-31 renal,25.2 µM
same,TGI,UO-31 renal,> 100 µM
